In patent publication US12350290B2, “Compositions and methods that promote hypoxia or the hypoxia response for treatment and prevention of mitochondrial dysfunction and oxidative stress disorders” (The General Hospital Corporation, priority 2015, dated 2025):

How the values were obtained:
HT-29 cells = assay: Anaerobic glycolysis measured as lactic acid; assay type: cell-based; conditions: basal conditions and with respiratory chain inhibition
Excerpt: (§1) The shift in energy metabolism was confirmed by measuring lactic acid as the end-product of anaerobic glycolysis and oxygen consumption as a proxy for aerobic respiration. […] Thus cells are able to shift towards glycolysis using endogenous defense mechanisms; however, a transcriptional response is needed to increase the glycolytic flux enough to maintain cellular growth rates. Furthermore, basal oxygen consumption was decreased with FG-4592 treatment. This may be protective in the setting of mitochondrial dysfunction, as it may limit the amount of ROS produced by impaired electron transport. Genetic and small molecule activation of the HIF pathway enabled cells to cope with mitochondrial dysfunction at multiple steps of the electron transport chain and in multiple cell types. The small molecule, FG-4592, normoxically stabilized HIF and thereby increased glycolysis beyond allosteric mechanisms. Furthermore, it bypassed the paradox between mitochondrial dysfunction and HIF stabilization during hypoxia.

[1] = system: hypoxia response elements (HREs) fused to GFP; assay: Zebrafish hypoxia reporter strain (HRE-GFP) fluorescence; assay type: in vivo; conditions: 6 hours of exposure to 2.5 μM FG-4592
Excerpt: A zebrafish reporter strain was used to monitor activation of the hypoxia transcriptional response (Santhakumar et al., Cancer Res. 72, 4017-27 (2012)). The reporter fish has a promoter containing hypoxia response elements (HREs) fused to GFP. Hypoxia exposure or VHL knockdown causes an increase in GFP expression, allowing for in vivo monitoring of the hypoxia response. This model system could be used to monitor drug-target engagement and pharmacodynamics of a HIF activator (Chowdhury et al., ACS Chem Biol. 8:1488-96 (2013)).
Antimycin inhibits oxygen consumption of zebrafish embryos (Stackley, et al., PLOS One. 6, e25652 (2011)).

[2] = system: HT-29s, HEK 293s and K562s; assay: Rescue of growth defect caused by respiratory chain inhibition; assay type: cell-based
Excerpt: After VHL was confirmed as an effective therapeutic target for mitochondrial disease, clinically-relevant options for triggering the hypoxia response were studied. While a VHL-inhibitor has been reported (Buckley et al., J. Am. Chem. Soc. 134:4465-68 (2012)), it is not cell permeable. However, PHD inhibitors have been extensively developed for the treatment of anemia of chronic kidney disease and ischemic injury (Rabinowitz, J. Med. Chem. 56:9369-9402 (2013)). The small molecule PHD inhibitor, FG-4592, also known as roxadustat, is currently in Phase III clinical trials for chronic kidney disease. […] FG-4592 treatment may mimic VHL-knockout, thus triggering a broader hypoxia transcriptional program. Compounds that trigger the hypoxia response including VHL-inhibitors and PHD inhibitors are therapeutics for mitochondrial dysfunction. Pre-treatment and incubation with FG-4592 almost completely rescued the growth defects caused by deficiency of multiple respiratory complexes, in multiple cell lines (FIGS. 12-13). […] Complex I, III or V inhibition stunts cell growth in most cell lines, including HT-29s, HEK 293s and […]. […] The nearly full rescue of the disease state across different cell lines and across chemical lesions highlights the general utility of this approach.

multiple cell types = assay: Oxygen consumption as proxy for aerobic respiration; assay type: cell-based; conditions: FG-4592 treatment
Excerpt: as §1

[3] = system: HIF-responsive genes (HK2, GLUT1, LDHA, PDK1); assay: Transcription of energy metabolism genes (hypoxia transcriptional program); assay type: cell-based
Excerpt: The HIF transcriptional response is believed to be protective during states of hypoxia, at least in part by causing a rewiring of energy metabolism. By shifting from aerobic respiration to anaerobic glycolysis, the HIF1α response can maintain the energy supply at low oxygen tensions. FG-4592 caused normoxic stabilization of HIF proteins. […] Glucose import and phosphorylation are rate-limiting steps in the glycolytic flux of many tissues. […] HIF1α activation is also known to shunt the carbon supply away from the TCA cycle and towards the LDH reaction. Several mechanisms have been proposed for this shift away from aerobic respiration, including pyruvate dehydrogenase phosphorylation. […] Thus, cells were unable to mount the appropriate transcriptional response by endogenous mechanisms.

zebrafish embryos = assay: Zebrafish embryo survival with Antimycin
HIF1α = HIF1α stabilization in cell culture; assay type: cell-based; conditions: for effect of respiratory chain inhibition on HIF1α stabilization: hypoxia, respiratory chain inhibitor alone
Excerpt: It has previously been noted that a paradox exists between mitochondrial dysfunction and cellular sensing of hypoxia (Chandel et al., Proc. Natl. Acad. Sci. U.S.A. 95:11715-20 (1998)). In cell culture, inhibition of the respiratory chain prevents HIF stabilization, even under low oxygen conditions that would otherwise trigger the hypoxia response. Proposed explanations include higher cellular oxygen tensions and […] ROS production during states of mitochondrial dysfunction. While this phenomenon has been noted in the hypoxia field, it has received less attention in the context of mitochondrial disease pathogenesis. If such a paradox extends to mitochondrial disease patients, such individuals may be unable to stabilize HIF in physiological conditions of hypoxia.

K562 cells = assay: Mitochondrial disease model: K562 cell growth with Antimycin; assay type: cell-based; conditions: three weeks
Protocol: Mitochondrial disease was modeled in the suspension cell line, K562, and a CRISPR screen was performed to identify potential drug targets. The natural product, Antimycin, was used as a complex III inhibitor of the respiratory chain. In the presence of Antimycin, the respiratory chain is unable to oxidize high energy reducing equivalents to power ATP production. However, redox recycling by the cytoplasmic lactate dehydrogenase reaction, allows other NAD+ dependent reactions to proceed. […] Mitochondrial disease was modeled with the addition of Antimycin alone (moderate disease) or Antimycin in combination with removal of pyruvate (severe disease), using cell growth as a proxy for disease magnitude (FIG. 3). K562 cells were infected with a ˜65,000 sgRNA library, targeting ˜18,000 genes (Shalem et al., Science, 343:84-88 (2014)). After one week of genome editing, the pool of knockout cells were divided into experimental conditions of untreated, moderate disease and severe disease states (FIG. 4). Samples for an enrichment screen were collected by allowing the knockout pool to grow in selection conditions for three weeks. The relative growth between untreated and moderate disease conditions was 100-fold and between untreated and severe disease conditions was 10,000-fold (FIG. 5). […]

| Compound | increase of glycolysis (HT-29 cells) [%] | fluorescence of reporter fish [1] | rescue of growth under ATP synthase inhibition ([2]; ATP synthase inhibition) | normal growth rates ([2]; no respiratory chain inhibition) | rescue of growth defect from Complex I, III or V inhibition ([2]; ~50 uM FG-4592 in advance and during respiratory chain dysfunction, dose-dependent) | basal oxygen consumption (multiple cell types) | transcription of glucose transporter 1 (GLUT1) ([3]; FG-4592 for 24 h) | transcription of hexokinase 2 (HK2) ([3]; FG-4592 for 24 h) | transcription of lactate dehydrogenase (LDHA) ([3]; FG-4592 treatment) | transcription of pyruvate dehydrogenase kinase (PDK1) ([3]; after FG-4592 treatment) | hypoxia transcriptional program ([3]; during respiratory chain inhibition) | survival of zebrafish embryos (zebrafish embryos; intermediate concentrations of Antimycin) | HIF1α stabilization (HIF1α; hypoxic conditions) | HIF1α stabilization during respiratory chain inhibition (HIF1α; mitochondrial dysfunction, normoxia or hypoxia) | HIF1α stabilization (HIF1α; normoxic conditions) | effect of respiratory chain inhibition on HIF1α stabilization (HIF1α) | toxicity to zebrafish embryos (zebrafish embryos; prolonged treatment at low nanomolar concentrations) | relative growth between untreated and moderate disease conditions (K562 cells; moderate disease: 100 nM Antimycin with 1 mM pyruvate) [fold] | relative growth between untreated and severe disease conditions (K562 cells; severe disease: 100 nM Antimycin without pyruvate) |
| --- | --- | --- | --- | --- | --- | --- | --- | --- | --- | --- | --- | --- | --- | --- | --- | --- | --- | --- | --- |
| Cc1nc(C(=O)NCC(=O)O)c(O)c2ccc(Oc3ccccc3)cc12 [FG-4592, N-[(4-hydroxy-1-methyl-7-phenoxy-3-isoquinolinyl)carbonyl]glycine] | ~60 | robust increase in fluorescence | significantly rescued | minimally increased | nearly or completely rescued this growth defect | decreased | upregulated in multiple cell types | upregulated in multiple cell types | similarly upregulated | significant upregulation | triggered the hypoxia transcriptional program, even during respiratory chain inhibition | nearly doubled survival | stabilized HIF1α beyond the endogenous hypoxia response of untreated cells | enabled HIF1α stabilization in the face of mitochondrial dysfunction | stabilized the transcription factor even during normoxia |  |  |  |  |
| CC[C@H]1/C=C/C=C/C[C@@H](C)[C@H](O)[C@@](C)(O)C(=O)[C@@H](C)[C@H](O)[C@@H](C)C(=O)[C@@H](C)[C@H](O)[C@@H](C)/C=C/C(=O)O[C@@H]2[C@H](C)[C@H](CC1)O[C@]1(CC[C@H](C)[C@H](C[C@@H](C)O)O1)[C@H]2C [Oligomycin] |  |  |  |  |  |  |  |  |  |  |  |  |  |  |  | prevented HIF1α stabilization during hypoxia |  |  |  |
| Antimycin |  |  |  |  |  |  |  |  |  |  |  |  |  |  |  | prevented HIF1α stabilization during hypoxia | resulted in death of embryos | 100 | 10,000 fold |
